{
  "source": "paper PMC4436593",
  "about": "“Endoplasmic reticulum stress-independent activation of unfolded protein response kinases by a small molecule ATP-mimic” (eLife, 2015)",
  "tested_on": "IRE1α-GFP in T-REx293 cells",
  "experiment": "IRE1-GFP foci formation in T-REx293 cells (confocal microscopy)",
  "format": "cell-based",
  "settings": "doxycycline-induced IRE1α-GFP",
  "description": "We next used a T-REx293 cell line, containing a genome-integrated doxycycline-inducible IRE1α-GFP fusion gene, to monitor IRE1α oligomerization in vivo ([Li et al., 2010]). In the presence of doxycycline, IRE1α-GFP was expressed and localized to the ER (Figure 2D). […] Furthermore, the foci dissolved by 8 hr of treatment as cells attenuated IRE1α signaling even in the presence of unmitigated ER stress (Figure 2D, upper panels) ([Li et al., 2010]). […] While Tm-induced foci became larger and fewer over time as previously observed, IPA-induced foci remained small and numerous.\nT-REx293 cells were split 2 days before imaging onto glass-bottom micro-well dishes (MatTek) at 5 × 10^4 cells/dish. Doxycyclin-containing medium (10 nM doxycycline) was added for 24 hr, withdrawn before imaging and replaced with imaging media (Hank's Balanced Salt Solution [Gibco], 2% FBS, and 5 mM HEPES pH 7.0). Images were acquired on a spinning-disk confocal microscope as described ([Li et al., 2010]).",
  "data": [
    {"smiles": "CSc1ccc(NC(=O)Nc2ccc(Nc3nccc(Nc4cc(C5CC5)[nH]n4)n3)cc2)cc1", "note": "[IPA]", "values": [
      {"measurement": "IRE1α-GFP foci formation", "value": "caused relocalization of IRE1α-GFP into foci"}
    ]}
  ]
}
